Assays:
[1] = Body weight of animals in the MXT tumor model; type: in vivo, mouse; details: for Body weight, Day 7: start of treatment
Description: The mouse mammary MXT tumor was developed as described above. […] CCDTHT and CisPt were administered subcutaneously and intraperitoneally, respectively, once daily for 10 days, including a 2-day rest period after 5 days of treatment (i.e., the last treatment was on day 19). Each group consisted of 7 animals, and the mean values±std. dev. for tumor volumes and body weight are shown in TABLE 4 and TABLE 5, respectively.
The mouse mammary MXT tumor model was developed and treated as described above. […] CisPt and PALP were administered intraperitoneally and subcutaneously, respectively, seven times on every second day (i.e., treatments were terminated on day 21). Each group included 7 animals; the mean values±std. dev. for tumor volumes and body weight are shown in TABLE 6 and TABLE 7, respectively.
The mouse mammary MXT tumor model was developed and treated as described above. […] In each group 7 mice were included. The mean values±std. dev. for tumor volumes and body weights are shown in TABLE 9 and TABLE 10, respectively.

MXT tumor = assay: MXT mouse mammary tumor model: tumor volume and survival; type: in vivo; details: for Tumor volume, Day 7: start of treatment
From the text: Tumors were developed in first generation hybrid BDF1 (C57 B1 female×DBA/2 male) adult female mice kept at specified pathogen free (SPF) hygienic level. Suspensions of HL-60 human leukemia cells, or approximately 0.1 cm^3 volume of tumor tissue derived from HT-168 human melanoma, PC-3 human prostate adenocarcinoma, T47D human breast carcinoma, MXT mouse mammary cancer, or mouse B16 melanoma cells were implanted subcutaneously to develop the tumors. After 12-18 days when the tumor-bearing mice were first treated, the size of the tumors was in the 0.2-0.4 cm^3 range. All compounds used were dissolved in physiological (0.9%) saline (NaCl), and the agents, alone or in combinations, were applied subcutaneously or intraperitoneally in 50 μl volume. Tumor volume was determined by calipers in three dimensions; this technique is well known to one having ordinary skill in the art. Tumor volume was calculated according to the generally accepted formula: V=a^2×b×π/6, where “a” and “b” mean the shortest and longest diameter, respectively, of the measured tumor.
The mouse mammary MXT tumor was developed as described above. On day 7 after transplantation of tumor cells, the animals were either remained untreated (group 1) or were treated with 2 mg/kg of CisPt alone (Group 2), or 4 mg/kg of CisPt alone (Group 3), or 4.6 mg/kg of CCDTHT alone (Group 4), or 2 mg/kg of CisPt+4.6 mg/kg of CCDTHT (Group 5), or 4 mg/kg of CisPt+4.6 mg/kg of CCDTHT (Group 6). CCDTHT and CisPt were administered subcutaneously and intraperitoneally, respectively, once daily for 10 days, including a 2-day rest period after 5 days of treatment (i.e., the last treatment was on day 19). Each group consisted of 7 animals, and the mean values±std. dev. for tumor volumes and body weight are shown in TABLE 4 and TABLE 5, respectively. While in this tumor model CCDTHT alone reduced the tumor volume less effectively than in the human tumor models, it clearly added to the tumor volume-reducing effect of CisPt (TABLE 4). A dramatic reduction in tumor volume was particularly evident in Group 6 (4 mg/kg CisPt+4.6 mg/kg CCDTHT).
The mouse mammary MXT tumor model was developed and treated as described above. On day 7 the animals were either remained untreated (Group 1) or were treated with 3 mg/kg of CisPt (Group 2) or 3 mg/kg of CisPt+15 mg/kg of highly purified PALP (Group 3). CisPt and PALP were administered intraperitoneally and subcutaneously, respectively, seven times on every second day (i.e., treatments were terminated on day 21). Each group included 7 animals; the mean values±std. dev. for tumor volumes and body weight are shown in TABLE 6 and TABLE 7, respectively.
The mouse mammary MXT tumor model was developed and treated as described above. On day 7 the animals either remained untreated (Group 1) or were treated with 3 mg/kg CisPt (Group 2), 3 mg/kg CisPt+4.6 mg/kg of CCDTHT (Group 3), or 3 mg/kg CisPt+4.6 mg/kg of CCDTHT+15 mg/kg highly purified PALP (Group 4). CisPt was administered intraperitoneally 9-times once every second day; CCDTHT was administered for 15 days once daily; and PALP was administered 3 times every 3rd day. In each group 7 mice were included. The mean values±std. dev. for tumor volumes and body weights are shown in TABLE 9 and TABLE 10, respectively.

cancer cells = assay: Induction of cancer cell death by quaternary nitrogen dyes compared with CCDTHT; type: cell-based
From the text: Despite these observations, for the purpose of embodiments of the invention, the thioxanthene or thioxanthone moiety may be replaced with any other heterocyclic moiety to which it is feasible to attach at least one quaternary nitrogen group with three substituents that together are capable of inhibiting the transport of external choline into cells and thereby inhibit cell proliferation.

[2] = Example 31, CisPt 2 mg/kg i.p. and/or CCDTHT 4.6 mg/kg s.c., once daily
[3] = Example 31, CisPt 2 mg/kg i.p. and/or CCDTHT 4.6 mg/kg s.c.
[4] = Example 31, CisPt 4 mg/kg i.p. without or with CCDTHT 4.6 mg/kg s.c., once daily
[5] = Example 31, CisPt 4 mg/kg i.p. without or with CCDTHT 4.6 mg/kg s.c.
[6] = Example 32, CisPt 3 mg/kg i.p. without or with PALP 15 mg/kg s.c., every second day
[7] = Example 32, CisPt 3 mg/kg i.p. without or with PALP 15 mg/kg s.c.
[8] = Example 34, CisPt 3 mg/kg i.p. every second day, CCDTHT 4.6 mg/kg once daily, PALP 15 mg/kg every 3rd day
[9] = Example 34, CisPt 3 mg/kg i.p., CCDTHT 4.6 mg/kg, PALP 15 mg/kg

## N.N.[Cl][Pt][Cl] [CisPt, Cisplatin]
[1]; [2]
  Body weight, Day 14: 22.9 ± 0.87 g
  Body weight, Day 18: 22.3 ± 1.02 g
  Body weight, Day 21: 21.2 ± 1.31 g
[1]; [3]
  Body weight, Day 7: 22.4 ± 0.73 g
[1]; [4]
  Body weight, Day 14: 19.4 ± 1.05 g
  Body weight, Day 18: all dead
  Body weight, Day 21: all dead
[1]; [5]
  Body weight, Day 7: 22.5 ± 0.92 g
[1]; [6]
  Body weight, Day 11: 23.1 ± 0.52 g
  Body weight, Day 16: 20.9 ± 0.65 g
  Body weight, Day 21: 19.2 ± 0.66 g
[1]; [7]
  Body weight, Day 7: 22.7 ± 0.37 g
[1]; [8]
  Body weight, Day 11: 23.10 ± 1.40 g
  Body weight, Day 15: 22.9 ± 1.00 g
  Body weight, Day 21: 20.6 ± 1.80 g
[1]; [9]
  Body weight, Day 7: 22.2 ± 1.10 g
MXT tumor; Example 31, CisPt 2 mg/kg and/or CCDTHT 4.6 mg/kg (groups 2, 4, 5)
  survival: 32.7 ± 6.2 days
MXT tumor; [2]
  Tumor volume, Day 14: 3.34 ± 1.04 cm^3
  Tumor volume, Day 18: 5.37 ± 0.68 cm^3
  Tumor volume, Day 21: 6.23 ± 0.86 cm^3
MXT tumor; [3]
  Tumor volume, Day 7: 0.46 ± 0.08 cm^3
MXT tumor; [4]
  Tumor volume, Day 14: 1.77 ± 0.40 cm^3
  Tumor volume, Day 18: all dead
  Tumor volume, Day 21: all dead
MXT tumor; [5]
  Tumor volume, Day 7: 0.45 ± 0.10 cm^3
MXT tumor; Example 31, CisPt 4 mg/kg without or with CCDTHT 4.6 mg/kg (groups 3, 6)
  survival: 18.1 ± 0.7 days
MXT tumor; [6]
  Tumor volume, Day 11: 1.45 ± 0.22 cm^3
  Tumor volume, Day 16: 4.53 ± 1.00 cm^3
  Tumor volume, Day 21: 5.86 ± 1.38 cm^3
MXT tumor; [7]
  Tumor volume, Day 7: 0.38 ± 0.01 cm^3
MXT tumor; Example 32, CisPt 3 mg/kg without or with PALP 15 mg/kg
  survival: 31.1 ± 6.2 days
MXT tumor; Example 34, CisPt 3 mg/kg alone or with CCDTHT 4.6 mg/kg + PALP 15 mg/kg
  survival time: 34 days
MXT tumor; [8]
  Tumor volume, Day 11: 1.92 ± 0.67 cm^3
  Tumor volume, Day 15: 3.80 ± 1.30 cm^3
  Tumor volume, Day 21: 6.64 ± 1.28 cm^3
MXT tumor; [9]
  Tumor volume, Day 7: 0.36 ± 0.12 cm^3

## CN(C)c1ccc2nc3c(C(=O)O)cc(=O)c(O)c-3oc2c1.Cl [gallocyanine]
Cancer cells
  inducing cancer cell death, compared with CCDTHT: ineffective or less effective

## C[N+](C)=c1ccc2nc3c(ccc4ccccc43)oc-2c1.[Cl-].[Cl-].[Cl-].[Zn+2] [meldola blue]
Cancer cells
  inducing cancer cell death, compared with CCDTHT: ineffective or less effective

## CN(C)c1ccc(C(=C2C=CC(=[N+](C)C)C=C2)c2ccc([N+](C)(C)C)cc2)cc1.[Cl-].[Cl-] [methyl green]
Cancer cells
  inducing cancer cell death, compared with CCDTHT: ineffective or less effective

## CN(C)c1ccc2nc3ccc(=[N+](C)C)cc-3sc2c1 [methylene blue]
Cancer cells
  inducing cancer cell death, compared with CCDTHT: ineffective or less effective

## CN(C)c1ccc2nc3ccc(=[N+](C)C)c([N+](=O)[O-])c-3sc2c1.[Cl-] [methylene green]
Cancer cells
  inducing cancer cell death, compared with CCDTHT: ineffective or less effective

## CN(C)c1ccc2cc3ccc(=[N+](C)C)cc-3oc2c1.[Cl-] [pyronin]
Cancer cells
  inducing cancer cell death, compared with CCDTHT: ineffective or less effective

## celestine blue
Cancer cells
  inducing cancer cell death, compared with CCDTHT: ineffective or less effective
